Laboratory results published in PubChem BioAssay AID330 (DTP/NCI, 2004).
Where “and” joins values, the source holds several entries; their conditions need not be identical. Equal entries are not always repeated. Toxic doses and inconclusive results are not listed. How the source made its calls: active means survival T/C of 150% or more; inactive means T/C below 125% in these data.

Tested on: P388 leukemia ip, CD2F1 mice, survival T/C
Experiment: NCI In Vivo Anticancer Drug Screen. Data for tumor model P388 Leukemia (intraperitoneal) in CD2F1 (CDF1) mice
Conditions: endpoint: median survival time, higher = longer survival
In short: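 Mice carrying the transplanted tumor received test compound or vehicle. Survival was recorded in each group, and the value is the treated-group measurement divided by that of the vehicle-treated control group.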

[1] = dose: 60.0 mg/kg/injection, schedule: Q01DX005 (ip), vehicle: saline with Tween-80
[2] = dose: 120.0 mg/kg/injection, schedule: Q01DX005 (ip), vehicle: saline with Tween-80
[3] = dose: 240.0 mg/kg/injection, schedule: Q01DX005 (ip), vehicle: saline with Tween-80
[4] = dose: 50.0 mg/kg/injection, schedule: Q01DX009 (ip), vehicle: saline with Tween-80
[5] = dose: 25.0 mg/kg/injection, schedule: Q01DX009 (ip), vehicle: saline with Tween-80
[6] = dose: 50.0 mg/kg/injection, schedule: Q01DX009 (ip), vehicle: suspension in saline
[7] = dose: 100.0 mg/kg/injection, schedule: Q01DX009 (ip), vehicle: suspension in saline
[8] = dose: 200.0 mg/kg/injection, schedule: Q01DX009 (ip), vehicle: suspension in saline
[9] = dose: 50.0 mg/kg/injection, schedule: Q01DX005 (ip), vehicle: saline
[10] = dose: 100.0 mg/kg/injection, schedule: Q01DX005 (ip), vehicle: saline
[11] = dose: 200.0 mg/kg/injection, schedule: Q01DX005 (ip), vehicle: saline
[12] = dose: 50.0 mg/kg/injection, schedule: Q01DX009 (ip), vehicle: saline
[13] = dose: 100.0 mg/kg/injection, schedule: Q01DX009 (ip), vehicle: saline
[14] = dose: 200.0 mg/kg/injection, schedule: Q01DX009 (ip), vehicle: saline

Measured: T/C

CCCCCCCCCCCCCCCC(CCCCCC)CCCCCC
inactive: dose: 50.0 mg/kg/injection, schedule: Q01DX001 (ip), vehicle: saline sonified 113 % of control | dose: 100.0 mg/kg/injection, schedule: Q01DX001 (ip), vehicle: saline sonified 100 % of control | dose: 200.0 mg/kg/injection, schedule: Q01DX001 (ip), vehicle: saline sonified 109 % of control

C=Cn1c([N+](=O)[O-])cnc1/C=C/c1ccc(C(=O)NC(C)CC)cc1 (stereo not given)
inactive: dose: 100.0 mg/kg/injection, schedule: Q04DX002 (ip), vehicle: gum acacia 93 % of control | dose: 200.0 mg/kg/injection, schedule: Q04DX002 (ip), vehicle: gum acacia 91 % of control | dose: 400.0 mg/kg/injection, schedule: Q04DX002 (ip), vehicle: gum acacia 96 % of control

CC(O)COc1ccccc1P(c1ccccc1)c1ccccc1 (stereo not given)
inactive: dose: 25.0 mg/kg/injection, schedule: Q01DX005 (ip), vehicle: Klucel (hydroxypropylcellulose) (HPC) 104 % of control and 95 % of control | dose: 50.0 mg/kg/injection, schedule: Q01DX005 (ip), vehicle: Klucel (hydroxypropylcellulose) (HPC) 104 % of control and 109 % of control and 97 % of control | dose: 100.0 mg/kg/injection, schedule: Q01DX005 (ip), vehicle: Klucel (hydroxypropylcellulose) (HPC) 101 % of control and 109 % of control and 91 % of control | dose: 200.0 mg/kg/injection, schedule: Q01DX005 (ip), vehicle: Klucel (hydroxypropylcellulose) (HPC) 104 % of control and 92 % of control

O=C(O)c1cccc2cccc(-c3c4ccc(=O)cc-4oc4cc(O)ccc34)c12
inactive: [1] 101 % of control | [2] 100 % of control | [3] 98 % of control

CCCCCCCCCCCCCCCC(=O)OC(=O)CCCCCCCCCCCCCCC
inactive: [4] 100 % of control | dose: 100.0 mg/kg/injection, schedule: Q01DX009 (ip), vehicle: saline with Tween-80 95 % of control | dose: 200.0 mg/kg/injection, schedule: Q01DX009 (ip), vehicle: saline with Tween-80 94 % of control

COC1/C=C/OC2(C)Oc3c(C)c(O)c4c(O)c(c(/C=N/N5C(C)CN(Cc6cccc(C#N)c6)CC5C)c(O)c4c3C2=O)NC(=O)/C(C)=C\C=C\C(C)C(O)C(C)C(O)C(C)C(OC(C)=O)C1C (stereo not given)
inactive: dose: 12.5 mg/kg/injection, schedule: Q01DX009 (ip), vehicle: saline with Tween-80 110 % of control | [5] 109 % of control | [4] 109 % of control and 118 % of control

CC(C)=CCc1c(-c2ccc(O)cc2O)oc2c([C@H]3C=C(C)CC(c4ccc(O)cc4O)[C@@H]3C(=O)c3ccc(O)cc3O)c(O)cc(O)c2c1=O (stereo not given in full)
inactive: dose: 8.75 mg/kg/injection, schedule: Q01DX005 (ip), vehicle: Klucel (hydroxypropylcellulose) (HPC) 99 % of control | dose: 17.5 mg/kg/injection, schedule: Q01DX005 (ip), vehicle: Klucel (hydroxypropylcellulose) (HPC) 98 % of control | dose: 35.0 mg/kg/injection, schedule: Q01DX005 (ip), vehicle: Klucel (hydroxypropylcellulose) (HPC) 92 % of control | dose: 70.0 mg/kg/injection, schedule: Q01DX005 (ip), vehicle: Klucel (hydroxypropylcellulose) (HPC) 92 % of control | dose: 140.0 mg/kg/injection, schedule: Q01DX005 (ip), vehicle: Klucel (hydroxypropylcellulose) (HPC) 108 % of control

NCCc1cc(=O)[nH]o1
inactive: [6] 90 % of control | [7] 90 % of control | [8] 91 % of control

COc1c(COC(C)=O)ccc2c1C(=O)c1ccccc1C2=O
inactive: dose: 100.0 mg/kg/injection, schedule: Q04DX002 (ip), vehicle: Klucel (hydroxypropylcellulose) (HPC) 108 % of control | dose: 200.0 mg/kg/injection, schedule: Q04DX002 (ip), vehicle: Klucel (hydroxypropylcellulose) (HPC) 92 % of control | dose: 400.0 mg/kg/injection, schedule: Q04DX002 (ip), vehicle: Klucel (hydroxypropylcellulose) (HPC) 93 % of control

Cc1ncc(COP(=O)(O)O)c(C2NC(C(=O)O)CS2)c1O (stereo not given)
inactive: [9] 115 % of control | dose: 60.0 mg/kg/injection, schedule: Q01DX005 (ip), vehicle: saline 92 % of control | [10] 107 % of control | dose: 120.0 mg/kg/injection, schedule: Q01DX005 (ip), vehicle: saline 94 % of control | [11] 113 % of control | dose: 240.0 mg/kg/injection, schedule: Q01DX005 (ip), vehicle: saline 91 % of control

CCC1(CCC(=O)OC)CCC[N+]2=C1c1[nH]c3ccc(Br)cc3c1CC2 (stereo not given)
inactive: dose: 6.25 mg/kg/injection, schedule: Q01DX005 (ip), vehicle: saline with Tween-80 97 % of control | dose: 12.5 mg/kg/injection, schedule: Q01DX005 (ip), vehicle: saline with Tween-80 100 % of control | dose: 25.0 mg/kg/injection, schedule: Q01DX005 (ip), vehicle: saline with Tween-80 94 % of control | [9] 86 % of control

CCOC(=O)NN(C(=O)OCC)C(C(=O)C1CCCCC1)N(NC(=O)OCC)C(=O)OCC
inactive: dose: 50.0 mg/kg/injection, schedule: Q01DX009 (ip), vehicle: Klucel (hydroxypropylcellulose) (HPC) 102 % of control | dose: 100.0 mg/kg/injection, schedule: Q01DX009 (ip), vehicle: Klucel (hydroxypropylcellulose) (HPC) 100 % of control | dose: 200.0 mg/kg/injection, schedule: Q01DX009 (ip), vehicle: Klucel (hydroxypropylcellulose) (HPC) 96 % of control

COc1ccc(NC(=O)N2CCOCC2)cc1
inactive: [12] 92 % of control | [13] 92 % of control | [14] 88 % of control

CCCCCC[CH2][Sn]([Cl])([CH2]C)[O][Sn]([Cl])([CH2]C)[CH2]CCCCCC (stereo not given)
inactive: dose: 12.5 mg/kg/injection, schedule: Q01DX005 (ip), vehicle: saline 86 % of control | dose: 25.0 mg/kg/injection, schedule: Q01DX005 (ip), vehicle: saline 86 % of control | [9] 98 % of control and 90 % of control | [10] 110 % of control | [11] 98 % of control

C[N+](C)(C)CCC(=O)c1ccco1
inactive: dose: 6.25 mg/kg/injection, schedule: Q01DX009 (ip), vehicle: saline 117 % of control | dose: 12.5 mg/kg/injection, schedule: Q01DX009 (ip), vehicle: saline 117 % of control | [5] 111 % of control | dose: 25.0 mg/kg/injection, schedule: Q01DX009 (ip), vehicle: saline 106 % of control

O=c1cc(Nc2ccc(Br)cc2)[nH]c(=O)[nH]1
inactive: [1] 94 % of control | [2] 100 % of control | [3] 102 % of control

CCCCCc1cc(O)cc2c1Oc1cc(O)cc(C(=O)CCCC)c1C(=O)O2
inactive: dose: 50.0 mg/kg/injection, schedule: Q01DX005 (ip), vehicle: saline with Tween-80 98 % of control | dose: 100.0 mg/kg/injection, schedule: Q01DX005 (ip), vehicle: saline with Tween-80 100 % of control | dose: 200.0 mg/kg/injection, schedule: Q01DX005 (ip), vehicle: saline with Tween-80 107 % of control

COc1ccccc1NC(=O)C(N=Nc1ccc(-c2nc3ccc(C)c(S(=O)(=O)O)c3s2)cc1S(=O)(=O)O)C(C)=O (stereo not given)
inactive: [12] 104 % of control | [13] 105 % of control | [14] 109 % of control

CN1C2CCC1C(CO)C(O)C2 (stereo not given)
inactive: [9] 98 % of control | [10] 103 % of control | [11] 107 % of control

O=S(=O)(Cc1ccccc1)C1CC1
inactive: [12] 122 % of control | [6] 104 % of control and 106 % of control | [13] 119 % of control | [7] 108 % of control and 94 % of control | [14] 118 % of control | [8] 102 % of control and 97 % of control | dose: 400.0 mg/kg/injection, schedule: Q01DX009 (ip), vehicle: saline 102 % of control | dose: 400.0 mg/kg/injection, schedule: Q01DX009 (ip), vehicle: suspension in saline 100 % of control and 105 % of control
